Key:
[1] = Plasma levels of AF267B and AF292 in dogs after AF267B administration (toxicokinetic, LC-MS); assay type: in vivo, Beagle dogs; conditions: for AUC(0-t) / Cmax / Tmax / half-life / AUC(0-inf) / MRT / MRT at 13 weeks: beagle, plasma, po
Source text: Internal Standard (AF261): 2-Methyl-8-methyl-1-thia-4,8-diaza-spiro[4.5]decan-3-one; MW 200. The analytical plasma samples originate from the in-life part of this study.

[2] = test system: aged rats; experiment: Morris water maze in aged rats; assay type: in vivo, Sprague-Dawley rats; conditions: for Reversal learning: AF267B 1 mg/kg, AF292 1 and 0.5 mg/kg, po
Source text: Old (22–24 months old) and young (three months old) Sprague-Dawley rats had been tested in the MWM.

[3] = Metabolic stability, human liver microsomes; assay type: in vitro ADME; conditions: read-out: Metabolic Stability T1/2
Procedure: (§1) The metabolic stability of AF292 was evaluated by monitoring its disappearance while incubated with rat, […], monkey, and human hepatic microsomes. Testosterone, and propranolol were run as assay controls.

[4] = Protein binding, human plasma; assay type: in vitro ADME
Procedure: (§2) Protein binding studies were carried out in human plasma, α1-glycoprotein, human serum albumin (HSA), and Dulbecco's Phosphate Buffered Saline (PBS). AF292 was added to a final concentration of 10 μM. […] (μM) and in human […] (AGP), (see Table 1).

[5] = target: Human serum albumin (HSA) (Homo sapiens, UniProt P02768); experiment: Protein binding, human serum albumin; assay type: in vitro ADME; conditions: 10 μM
Sequence of Human serum albumin (HSA) (P02768 25-609): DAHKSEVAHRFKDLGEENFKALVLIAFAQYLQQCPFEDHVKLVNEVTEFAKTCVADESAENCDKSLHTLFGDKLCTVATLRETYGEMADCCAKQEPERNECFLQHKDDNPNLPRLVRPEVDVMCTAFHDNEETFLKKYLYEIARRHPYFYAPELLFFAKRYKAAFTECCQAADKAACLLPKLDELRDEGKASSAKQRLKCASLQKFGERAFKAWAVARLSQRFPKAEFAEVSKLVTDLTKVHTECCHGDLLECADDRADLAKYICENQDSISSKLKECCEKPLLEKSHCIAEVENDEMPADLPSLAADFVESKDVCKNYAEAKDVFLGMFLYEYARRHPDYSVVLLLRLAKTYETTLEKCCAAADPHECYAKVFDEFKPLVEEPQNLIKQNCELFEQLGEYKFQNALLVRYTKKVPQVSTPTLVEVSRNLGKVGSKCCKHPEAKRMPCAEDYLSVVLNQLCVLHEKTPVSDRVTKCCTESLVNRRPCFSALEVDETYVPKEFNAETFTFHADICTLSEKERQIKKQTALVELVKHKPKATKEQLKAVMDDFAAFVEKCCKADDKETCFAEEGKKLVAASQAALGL
Procedure: as §2

[6] = Metabolic stability, monkey liver microsomes; assay type: in vitro ADME; conditions: read-out: Metabolic Stability T1/2
Procedure: as §1

[7] = test system: cells transfected with M1 mAChR; experiment: Apoptosis (DAPI, TUNEL, FACS) after starvation, Aβ or H2O2; assay type: cell-based, rat; conditions: for Apoptotic cell death induced by starvation: 24 hrs starvation; for H2O2-induced apoptosis: H2O2 25 and 50 μm; for Aβ-induced apoptosis: β-A25-35 or β-A1-42 (25 μM), M1 transfected cells; for Apoptotic population after β-amyloid (FACS): β-Amyloid 25–35 or 1–42
Procedure: Several experiments were performed in serum-free medium.
Cells were grown and treated on glass coverslips.
Apoptotic cells were identified as the pre-G1 phase.

[8] = test system: C57BL/10SnJ (B10) mice; experiment: Morris water maze in small hippocampus mice; assay type: in vivo; conditions: for Training, escape latency: 0.5 and 1 mg/kg i.p. (rivastigmine, nicotine 1 mg/kg); for Training, path length: AF150(S) both doses, AF267B the higher dose; for Reversal test, escape latency / Training, swimming speed / Transfer test, spatial bias: mouse, in vivo
Procedure: C57BL/10SnJ (B10) mice were selected due to their small hippocampi and decreased number of hippocampal pyramidal neurons; the cell loss seemed to be associated with poor spatial learning.
Each group of mice was randomly divided into 7 treatment groups (n=12-14/group). […] All tested compounds and saline were administered once a day for 4 days before starting the behavioral testing, and then for the duration of the 5-day experiment, 30 minutes before testing.
Training: Each mouse was trained for four consecutive days, four trials (one block) per day, in which the platform position remained constant and was located in the center of the southeast quadrant of the pool. Within each block of four trials, each mouse started at each of the starting locations, but the sequence of locations was randomly selected. A trial consisted of placing a mouse by hand into the water facing the wall of the pool at one of four starting locations, north, south, east or west, around the pool's perimeter. Escape latency (the time to find the platform), path length (the distance traveled by the mouse) and speed (the swimming rate of the mouse) were recorded on each trial by the monitoring system.
For each mouse, the path length, escape latency, and swimming speed of the four trials on each of the 4 training days were grouped into blocks (one block for each day). […] Specific comparisons were performed, using the simple main effects contrasts acalysis, which is specifically suited for testing significant interactions.
Transfer test. During trial No. 17, on the fourth day, the platform was entirely removed from the pool (a probe trial). In this trial, the mouse was placed into the water for a limited period (30 s), and its spatial bias was measured by recording the relative distribution of escape latency and path length over the four quadrants of the pool.
Reversal test. During trials 18–21, on the fifth day, the platform position was changed to the northwest quadrant, opposite to the training quadrant. Thus, during reversal learning, the platform location was moved relative to the configuration of objects within the room, but the pool occupied the same place within the room throughout the entire experiment. Testing of the rats and measures taken were the same as in training.
For each mouse, the escape latency, path length and swimming speed of the reversal test (trials No. 18–21) were grouped into one block.

[9] = test system: cells transfected with M1 mAChR; experiment: Apoptosis (DAPI, TUNEL, FACS) after starvation, Aβ or H2O2; assay type: cell-based, rat; conditions: for Apoptosis after Aβ or H2O2 (DAPI): DAPI staining
[10] = test system: tau protein; experiment: tau-1 immunoreactivity in primary cell cultures (western blot); assay type: cell-based, rat; conditions: 1–100 μM, cortical and hippocampal cell cultures
Procedure: Primary cell cultures were grown as described in EXAMPLE 38. Cell supernatants were removed and the cells were washed once in medium prior to the addition of cold phosphate buffre saline ph=7.4 (PBS) solution containing 0.2 mM EDTA. Cells were scraped using a rubber policeman, transferred to Eppendorf tubes, and centrifuged at 4° C. Cell pellets were resuspended in lysis buffer (EDTA 5 mM, Tris 50 mM, Triton 1%, NaCl 150 mM) containing protease inhibitors (5 units/ml apronitin, […] and 0.1 mM PMSF, Sigma) and subjected to centrifugation at 4° C. Supernatants were transferred into Eppendorf tubes and kept at −20° C. till analyzed. The extent of tau-1 immunoreactivity (an antibody that recognizes a non-phosphorylated tau at Ser^199) was determined by western blots.

[11] = both sexes, dog, 6 mg/kg, read-out: plasma half life
[12] = female, dog, 6 mg/kg, F (1x), AF267B 1.5, 3, 6 mg/kg p.o. single
[13] = female, dog, 6 mg/kg, F(13w), AF267B 1.5, 3, 6 mg/kg p.o.
[14] = male, dog, 6 mg/kg, M (1x), AF267B 1.5, 3, 6 mg/kg p.o. single
[15] = male, dog, 6 mg/kg, M(13w), AF267B 1.5, 3, 6 mg/kg p.o.
[16] = male, dog, read-out: Elimination half life, Mean T1/2

Row | SMILES | AUC(0-t) ([1]; both sexes, dog) | Cmax ([1]; both sexes, dog) | Tmax ([1]; both sexes, dog) | half-life [1, 11] | AUC(0-inf) [1, 12] | AUC(0-inf) [1, 13] | MRT ([1]; female, dog, F (1x)) | MRT at 13 weeks ([1]; female, dog, F(13w)) | AUC(0-inf) [1, 14] | AUC(0-inf) [1, 15] | MRT ([1]; male, dog, M (1x)) | MRT at 13 weeks ([1]; male, dog, M(13w)) | half-life [1, 16] | Reversal learning [2] | half-life [3] | fraction unbound at 10 μM [4] | Protein Binding [5] | half-life [6] | Apoptotic death during starvation (FACS) [7] | Apoptotic cell death induced by starvation [7] | also measured
1 | CC[C@@H]1SC2(CCNCC2)NC1=O [AF292, (S)-2-Ethyl-1-thia-4,8-diaza-spiro[4.5]decan-3-one] | 616 to 2450 ng·h/mL | 136 to 555 ng/mL | 3 h | 540 to 1200 min | 3900 to 4840 ng·h/mL | 1870 to 12700 ng·h/mL | 8.7 to 18.7 h | 5.1 to 33.7 h | 1140 to 10900 ng·h/mL | 1610 to 4170 ng·h/mL | 5 to 27.3 h | 5 to 7.8 h | 378 min | did not reach significance | > 100 min | 0.65 | Human serum albumin (HSA) = 22% | 74 min |  |  | Elimination half life, Mean T1/2 ([1]; F): Mean T1/2 (F) = 10.6 +/− 7.6 h; Cmax vs. the Cmax of AF267B ([1]; dog, in vivo): 50–90%; half-life ([1]; female, dog, females, read-out: T1/2 (converted)): 636 min; Probe trial, memory ([2]; both doses (1 and 0.5 mg/kg, po)): tendency for partial spatial bias
2 | CC[C@@H]1SC2(CCN(C)CC2)NC1=O [AF267B, (S)-2-ethyl-8-methyl-1-thia-4,8-diaza-spiro[4.5]decan-3-one] | 712 to 3950 ng·h/mL | 162 to 1350 ng/mL | 1.5 to 3 h | 60 to 120 min | 985 to 3180 ng·h/mL | 1030 to 4160 ng·h/mL | 4.7 to 5.3 h | 3.6 to 5.2 h | 800 to 3690 ng·h/mL | 1040 to 4470 ng·h/mL | 3.8 to 5 h | 3 to 4.2 h | 126 min | improved significantly the reversal learning | > 100 min | 0.75 | HSA = 32% | 27 min | protected cells from apoptotic death | significantly protect | H2O2-induced apoptosis [7]: prevented H2O2-induced apoptosis; Aβ-induced apoptosis [7]: prevented; Apoptotic population after β-amyloid (FACS) [7]: reduced the apoptotic population significantly; half-life ([1]; female, dog, read-out: Elimination half life, Mean T1/2): 198 min; Learning ([2]; 1 mg/kg): tendency for improvement; Swimming ability ([2]; rat, in vivo): no significant effect on the swimming ability; Training, escape latency [8]: positively affected; Training, path length [8]: positively affected; Reversal test, escape latency [8]: improved the escape latency; Training, swimming speed [8]: enhanced the swimming speed in a dose dependent manner; Transfer test, spatial bias [8]: complete spatial bias; Apoptosis after Aβ or H2O2 (DAPI) [9]: protect these cells from apoptosis; tau-1 immunoreactivity [10]: effective in elevating tau immunoreactivity
3 | CC1=NCC2(CCN(C)CC2)S1 [AF150(S), 2,8-Dimethyl-1-thia-3,8-diaza-spiro[4.5]dec-2-ene] |  |  |  |  |  |  |  |  |  |  |  |  |  |  |  |  |  |  | protected cells from apoptotic death | significantly protect | H2O2-induced apoptosis [7]: prevented H2O2-induced apoptosis; Aβ-induced apoptosis [7]: prevented; Apoptotic population after β-amyloid (FACS) [7]: reduced the apoptotic population significantly; Training, escape latency [8]: positively affected; Training, path length [8]: positively affected; Reversal test, escape latency [8]: improved the escape latency; Training, swimming speed [8]: enhancing effect of AF150(S) was equal in both doses; Transfer test, spatial bias [8]: complete spatial bias; Apoptosis, TUNEL ([9]; 100 μM, 25 μM β-amyloid 25–35): able to block the apoptosis; Apoptosis after Aβ or H2O2 (DAPI) [9]: protect these cells from apoptosis; tau-1 immunoreactivity [10]: effective in elevating tau immunoreactivity

From US7049321B2, “Methods and pharmaceutical compositions for treatment of central and peripheral nervous system disorders and compounds useful therefor” (Israel Institute for Biological Research, priority 2002, dated 2006)
